“And” between values parts separate entries of the source, which are not always exact repeats. Equal values may be shown once. The source made the active and inactive calls. The rule behind the calls is not given here.
Key:
[1] = test system: Tyrosine-protein kinase ABL1 (Homo sapiens), P00519 [E255K]; assay: Inhibition of phosphorylated human ABL1 E255K mutant assessed as percent of control at 2000 nM by KINOMEscan assay relative to control; parameters: scale not given: the % may be the effect or the level left
[2] = test system: Tyrosine-protein kinase ABL1 (Homo sapiens), P00519 [F317I]; assay: Inhibition of non-phosphorylated human ABL1 F317I mutant assessed as percent of control at 2000 nM by KINOMEscan assay relative to control; parameters: scale not given: the % may be the effect or the level left
[3] = test system: Tyrosine-protein kinase ABL1 (Homo sapiens), P00519 [F317L]; assay: Inhibition of non-phosphorylated human ABL1 F317L mutant assessed as percent of control at 2000 nM by KINOMEscan assay relative to control; parameters: scale not given: the % may be the effect or the level left
[4] = test system: Tyrosine-protein kinase ABL1 (Homo sapiens), P00519 [Y253F]; assay: Inhibition of phosphorylated human ABL1 Y253F mutant assessed as percent of control at 2000 nM by KINOMEscan assay relative to control; parameters: scale not given: the % may be the effect or the level left
[5] = biological target: Tyrosine-protein kinase ABL2 (Homo sapiens) (UniProt P42684); assay: Inhibition of human ABL2 assessed as percent of control at 2000 nM by KINOMEscan assay relative to control; parameters: scale not given: the % may be the effect or the level left
[6] = biological target: NUAK family SNF1-like kinase 1 (Homo sapiens) (UniProt O60285); assay: Inhibition of human ARK5 assessed as percent of control at 2000 nM by KINOMEscan assay relative to control; parameters: scale not given: the % may be the effect or the level left
[7] = biological target: Megakaryocyte-associated tyrosine-protein kinase (Homo sapiens) (UniProt P42679); assay: Inhibition of human CTK assessed as percent of control at 2000 nM by KINOMEscan assay relative to control; parameters: scale not given: the % may be the effect or the level left
[8] = biological target: Serine/threonine-protein kinase DCLK3 (Homo sapiens) (UniProt Q9C098); assay: Inhibition of human DCAMKL3 assessed as percent of control at 2000 nM by KINOMEscan assay relative to control; parameters: scale not given: the % may be the effect or the level left
[9] = biological target: Serine/threonine-protein kinase MRCK gamma (Homo sapiens) (UniProt Q6DT37); assay: Inhibition of human DMPK2 assessed as percent of control at 2000 nM by KINOMEscan assay relative to control; parameters: scale not given: the % may be the effect or the level left
[10] = test system: Fibroblast growth factor receptor 3 (Homo sapiens), P22607 [G697C]; assay: Inhibition of human FGFR3 G697C mutant assessed as percent of control at 2000 nM by KINOMEscan assay relative to control; parameters: scale not given: the % may be the effect or the level left
Chain of Fibroblast growth factor receptor 3 (Homo sapiens), P22607 [G697C] (P22607 whole entry G697C): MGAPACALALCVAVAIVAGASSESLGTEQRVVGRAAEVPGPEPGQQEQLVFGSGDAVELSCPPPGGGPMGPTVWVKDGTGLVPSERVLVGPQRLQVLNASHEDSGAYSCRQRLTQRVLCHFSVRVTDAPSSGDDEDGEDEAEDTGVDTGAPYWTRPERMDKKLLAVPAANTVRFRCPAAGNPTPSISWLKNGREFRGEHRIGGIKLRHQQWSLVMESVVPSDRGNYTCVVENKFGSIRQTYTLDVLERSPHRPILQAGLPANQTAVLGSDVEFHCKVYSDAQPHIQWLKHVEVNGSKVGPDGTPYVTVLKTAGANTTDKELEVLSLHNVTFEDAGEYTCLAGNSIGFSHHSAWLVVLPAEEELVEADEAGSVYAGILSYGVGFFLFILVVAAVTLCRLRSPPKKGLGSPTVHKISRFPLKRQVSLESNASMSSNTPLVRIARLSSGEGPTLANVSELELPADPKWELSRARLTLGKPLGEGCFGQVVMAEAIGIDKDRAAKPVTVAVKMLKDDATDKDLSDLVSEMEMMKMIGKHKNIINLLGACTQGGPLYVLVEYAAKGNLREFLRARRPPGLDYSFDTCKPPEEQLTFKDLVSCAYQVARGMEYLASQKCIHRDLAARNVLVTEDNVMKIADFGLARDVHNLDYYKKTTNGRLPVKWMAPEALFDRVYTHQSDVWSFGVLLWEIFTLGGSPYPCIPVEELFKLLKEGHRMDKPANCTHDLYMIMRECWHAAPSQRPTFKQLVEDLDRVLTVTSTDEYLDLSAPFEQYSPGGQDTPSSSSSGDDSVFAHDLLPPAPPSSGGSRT

[11] = biological target: Vascular endothelial growth factor receptor 1 (Homo sapiens) (UniProt P17948); assay: Inhibition of human FLT1 assessed as percent of control at 2000 nM by KINOMEscan assay relative to control; parameters: scale not given: the % may be the effect or the level left
[12] = biological target: Vascular endothelial growth factor receptor 3 (Homo sapiens) (UniProt P35916); assay: Inhibition of human FLT4 assessed as percent of control at 2000 nM by KINOMEscan assay relative to control; parameters: scale not given: the % may be the effect or the level left
Chain of Vascular endothelial growth factor receptor 3 (Homo sapiens) (P35916 whole entry): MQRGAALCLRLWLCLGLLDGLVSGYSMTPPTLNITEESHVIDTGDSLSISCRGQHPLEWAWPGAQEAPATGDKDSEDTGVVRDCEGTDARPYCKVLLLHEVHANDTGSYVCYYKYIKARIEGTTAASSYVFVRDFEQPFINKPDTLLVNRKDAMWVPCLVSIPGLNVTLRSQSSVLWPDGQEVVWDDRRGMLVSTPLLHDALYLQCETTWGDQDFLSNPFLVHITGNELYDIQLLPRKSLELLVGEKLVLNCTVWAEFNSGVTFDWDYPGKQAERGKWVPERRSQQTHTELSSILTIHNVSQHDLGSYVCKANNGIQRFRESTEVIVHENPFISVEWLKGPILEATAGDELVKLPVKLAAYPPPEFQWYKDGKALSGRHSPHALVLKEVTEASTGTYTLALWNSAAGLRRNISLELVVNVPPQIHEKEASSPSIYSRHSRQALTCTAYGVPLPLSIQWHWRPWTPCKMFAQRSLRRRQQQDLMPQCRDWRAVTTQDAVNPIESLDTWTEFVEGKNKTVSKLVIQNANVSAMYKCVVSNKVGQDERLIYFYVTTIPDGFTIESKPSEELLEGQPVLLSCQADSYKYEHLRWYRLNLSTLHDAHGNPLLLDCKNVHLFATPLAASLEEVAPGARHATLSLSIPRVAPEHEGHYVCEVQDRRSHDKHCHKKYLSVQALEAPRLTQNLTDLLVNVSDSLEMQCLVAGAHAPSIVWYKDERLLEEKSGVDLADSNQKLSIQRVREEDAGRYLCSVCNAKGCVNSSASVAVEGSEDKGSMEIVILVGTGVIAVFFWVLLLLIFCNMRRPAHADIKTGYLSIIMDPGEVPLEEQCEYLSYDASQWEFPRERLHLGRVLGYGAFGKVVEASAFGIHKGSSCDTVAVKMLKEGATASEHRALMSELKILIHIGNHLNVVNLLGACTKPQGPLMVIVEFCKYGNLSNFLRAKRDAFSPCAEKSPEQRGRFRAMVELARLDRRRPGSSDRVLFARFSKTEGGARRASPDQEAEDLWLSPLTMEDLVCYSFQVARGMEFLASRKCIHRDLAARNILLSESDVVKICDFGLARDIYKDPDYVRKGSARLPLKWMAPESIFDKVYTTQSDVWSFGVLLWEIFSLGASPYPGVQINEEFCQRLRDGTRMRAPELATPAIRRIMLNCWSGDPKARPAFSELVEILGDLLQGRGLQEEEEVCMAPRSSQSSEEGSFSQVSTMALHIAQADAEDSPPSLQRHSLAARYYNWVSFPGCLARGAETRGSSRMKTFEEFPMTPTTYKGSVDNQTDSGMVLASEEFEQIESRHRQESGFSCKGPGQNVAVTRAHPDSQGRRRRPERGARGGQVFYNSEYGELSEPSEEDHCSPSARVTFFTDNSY

[13] = biological target: Mitogen-activated protein kinase kinase kinase kinase 3 (Homo sapiens) (UniProt Q8IVH8); assay: Inhibition of human MAP4K3 assessed as percent of control at 2000 nM by KINOMEscan assay relative to control; parameters: scale not given: the % may be the effect or the level left
[14] = biological target: Serine/threonine-protein kinase MARK1 (Homo sapiens) (UniProt Q9P0L2); assay: Inhibition of human MARK1 assessed as percent of control at 2000 nM by KINOMEscan assay relative to control; parameters: scale not given: the % may be the effect or the level left
[15] = biological target: Tyrosine-protein kinase Mer (Homo sapiens) (UniProt Q12866); assay: Inhibition of human MERTK assessed as percent of control at 2000 nM by KINOMEscan assay relative to control; parameters: scale not given: the % may be the effect or the level left
[16] = biological target: Serine/threonine-protein kinase MRCK beta (Homo sapiens) (UniProt Q9Y5S2); assay: Inhibition of human MRCKB assessed as percent of control at 2000 nM by KINOMEscan assay relative to control; parameters: scale not given: the % may be the effect or the level left
Chain of Serine/threonine-protein kinase MRCK beta (Homo sapiens) (Q9Y5S2 whole entry): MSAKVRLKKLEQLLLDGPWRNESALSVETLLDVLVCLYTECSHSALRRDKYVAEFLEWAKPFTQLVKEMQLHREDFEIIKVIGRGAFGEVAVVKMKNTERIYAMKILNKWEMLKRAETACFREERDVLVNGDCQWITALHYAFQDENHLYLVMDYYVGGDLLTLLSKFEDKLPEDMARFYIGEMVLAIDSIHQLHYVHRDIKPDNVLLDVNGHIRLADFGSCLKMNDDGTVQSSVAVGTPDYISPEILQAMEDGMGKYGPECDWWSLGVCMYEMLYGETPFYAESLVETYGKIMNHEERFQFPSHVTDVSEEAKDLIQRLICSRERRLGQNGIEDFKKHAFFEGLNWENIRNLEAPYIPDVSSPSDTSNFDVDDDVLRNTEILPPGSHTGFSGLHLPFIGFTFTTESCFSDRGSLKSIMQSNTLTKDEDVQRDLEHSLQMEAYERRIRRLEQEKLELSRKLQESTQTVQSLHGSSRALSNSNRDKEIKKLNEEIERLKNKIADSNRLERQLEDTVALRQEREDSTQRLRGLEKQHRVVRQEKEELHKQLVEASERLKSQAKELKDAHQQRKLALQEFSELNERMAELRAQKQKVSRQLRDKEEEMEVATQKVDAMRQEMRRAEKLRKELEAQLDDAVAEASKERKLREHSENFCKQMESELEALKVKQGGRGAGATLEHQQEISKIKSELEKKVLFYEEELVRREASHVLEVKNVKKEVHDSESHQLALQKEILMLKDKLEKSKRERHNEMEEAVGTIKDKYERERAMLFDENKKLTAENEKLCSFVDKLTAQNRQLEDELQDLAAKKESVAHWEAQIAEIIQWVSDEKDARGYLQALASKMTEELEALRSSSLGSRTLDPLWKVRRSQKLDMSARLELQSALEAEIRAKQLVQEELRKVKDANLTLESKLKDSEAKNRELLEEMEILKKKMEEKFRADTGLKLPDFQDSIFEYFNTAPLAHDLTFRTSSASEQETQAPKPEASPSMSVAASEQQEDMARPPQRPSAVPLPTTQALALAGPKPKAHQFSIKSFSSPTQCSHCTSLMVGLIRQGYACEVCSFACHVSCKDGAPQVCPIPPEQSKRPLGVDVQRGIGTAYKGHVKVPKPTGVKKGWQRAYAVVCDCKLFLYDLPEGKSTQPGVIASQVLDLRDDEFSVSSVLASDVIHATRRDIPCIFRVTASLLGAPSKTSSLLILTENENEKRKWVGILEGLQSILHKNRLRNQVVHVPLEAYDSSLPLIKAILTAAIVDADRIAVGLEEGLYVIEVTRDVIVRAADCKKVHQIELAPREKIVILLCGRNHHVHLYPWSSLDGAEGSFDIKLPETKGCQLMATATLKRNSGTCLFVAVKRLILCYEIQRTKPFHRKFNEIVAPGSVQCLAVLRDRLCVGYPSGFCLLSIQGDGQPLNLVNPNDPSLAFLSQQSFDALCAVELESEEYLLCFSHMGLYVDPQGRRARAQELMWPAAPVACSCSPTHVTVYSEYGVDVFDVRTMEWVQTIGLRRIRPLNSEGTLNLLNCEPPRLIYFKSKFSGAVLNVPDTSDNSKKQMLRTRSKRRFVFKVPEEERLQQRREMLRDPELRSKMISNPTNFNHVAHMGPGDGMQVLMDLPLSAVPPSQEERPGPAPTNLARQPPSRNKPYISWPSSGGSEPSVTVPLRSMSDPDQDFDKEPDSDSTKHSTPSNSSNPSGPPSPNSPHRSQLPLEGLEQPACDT

[17] = biological target: Myosin light chain kinase, smooth muscle (Homo sapiens) (UniProt Q15746); assay: Inhibition of human MYLK assessed as percent of control at 2000 nM by KINOMEscan assay relative to control; parameters: scale not given: the % may be the effect or the level left
[18] = biological target: Serine/threonine-protein kinase Nek11 (Homo sapiens) (UniProt Q8NG66); assay: Inhibition of human NEK11 assessed as percent of control at 2000 nM by KINOMEscan assay relative to control; parameters: scale not given: the % may be the effect or the level left
[19] = biological target: Serine/threonine-protein kinase Nek3 (Homo sapiens) (UniProt P51956); assay: Inhibition of human NEK3 assessed as percent of control at 2000 nM by KINOMEscan assay relative to control; parameters: scale not given: the % may be the effect or the level left
[20] = biological target: Serine/threonine-protein kinase Nek6 (Homo sapiens) (UniProt Q9HC98); assay: Inhibition of human NEK6 assessed as percent of control at 2000 nM by KINOMEscan assay relative to control; parameters: scale not given: the % may be the effect or the level left
[21] = biological target: Platelet-derived growth factor receptor beta (Homo sapiens) (UniProt P09619); assay: Inhibition of human PDGFRB assessed as percent of control at 2000 nM by KINOMEscan assay relative to control; parameters: scale not given: the % may be the effect or the level left
[22] = biological target: Cyclin-dependent kinase 14 (Homo sapiens) (UniProt O94921); assay: Inhibition of human PFTK1 assessed as percent of control at 2000 nM by KINOMEscan assay relative to control; parameters: scale not given: the % may be the effect or the level left
[23] = biological target: Phosphatidylinositol 3-kinase C2 domain-containing subunit gamma (Homo sapiens) (UniProt O75747); assay: Inhibition of human PIK3C2G assessed as percent of control at 2000 nM by KINOMEscan assay relative to control; parameters: scale not given: the % may be the effect or the level left
[24] = test system: Phosphatidylinositol 4,5-bisphosphate 3-kinase catalytic subunit alpha isoform (Homo sapiens), P42336 [E545K]; assay: Inhibition of human PIK3CA E545K mutant assessed as percent of control at 2000 nM by KINOMEscan assay relative to control; parameters: scale not given: the % may be the effect or the level left
Chain of Phosphatidylinositol 4,5-bisphosphate 3-kinase catalytic subunit alpha isoform (Homo sapiens), P42336 [E545K] (P42336 whole entry E545K, canonical isoform): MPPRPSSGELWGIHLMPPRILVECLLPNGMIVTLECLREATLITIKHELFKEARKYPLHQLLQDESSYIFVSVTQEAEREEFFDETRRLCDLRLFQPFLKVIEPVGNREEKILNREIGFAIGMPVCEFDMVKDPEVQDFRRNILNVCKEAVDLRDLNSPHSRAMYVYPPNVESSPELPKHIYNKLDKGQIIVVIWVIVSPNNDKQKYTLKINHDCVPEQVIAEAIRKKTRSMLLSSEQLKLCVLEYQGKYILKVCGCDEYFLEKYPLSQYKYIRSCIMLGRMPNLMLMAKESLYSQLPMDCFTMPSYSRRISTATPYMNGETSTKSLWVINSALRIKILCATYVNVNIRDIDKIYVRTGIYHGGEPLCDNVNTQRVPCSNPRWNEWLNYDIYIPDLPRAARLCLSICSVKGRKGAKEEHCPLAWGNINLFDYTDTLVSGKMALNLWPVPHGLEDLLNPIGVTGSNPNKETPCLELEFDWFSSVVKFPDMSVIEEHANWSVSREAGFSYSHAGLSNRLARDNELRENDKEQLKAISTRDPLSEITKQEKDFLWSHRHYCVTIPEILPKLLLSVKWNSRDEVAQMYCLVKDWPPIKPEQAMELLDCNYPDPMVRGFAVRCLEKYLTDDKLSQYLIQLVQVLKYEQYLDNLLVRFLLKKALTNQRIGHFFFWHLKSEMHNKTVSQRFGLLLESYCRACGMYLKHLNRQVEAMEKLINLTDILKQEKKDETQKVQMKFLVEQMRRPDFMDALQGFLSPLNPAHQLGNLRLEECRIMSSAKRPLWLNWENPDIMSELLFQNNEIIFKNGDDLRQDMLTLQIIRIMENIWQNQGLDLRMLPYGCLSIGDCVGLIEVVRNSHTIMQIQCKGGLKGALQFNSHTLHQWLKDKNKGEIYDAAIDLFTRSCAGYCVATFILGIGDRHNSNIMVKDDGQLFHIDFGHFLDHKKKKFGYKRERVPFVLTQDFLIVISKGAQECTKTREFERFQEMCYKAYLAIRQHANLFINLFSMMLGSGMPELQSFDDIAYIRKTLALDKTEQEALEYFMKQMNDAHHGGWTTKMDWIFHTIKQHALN

[25] = biological target: Serine/threonine-protein kinase D1 (Homo sapiens) (UniProt Q15139); assay: Inhibition of human PRKD1 assessed as percent of control at 2000 nM by KINOMEscan assay relative to control; parameters: scale not given: the % may be the effect or the level left
[26] = biological target: cAMP-dependent protein kinase catalytic subunit PRKX (Homo sapiens) (UniProt P51817); assay: Inhibition of human PRKX assessed as percent of control at 2000 nM by KINOMEscan assay relative to control; parameters: scale not given: the % may be the effect or the level left
[27] = biological target: Serine/threonine-protein kinase 35 (Homo sapiens) (UniProt Q8TDR2); assay: Inhibition of human STK35 assessed as percent of control at 2000 nM by KINOMEscan assay relative to control; parameters: scale not given: the % may be the effect or the level left
[28] = biological target: Serine/threonine-protein kinase TNNI3K (Homo sapiens) (UniProt Q59H18); assay: Inhibition of human TNNI3K assessed as percent of control at 2000 nM by KINOMEscan assay relative to control; parameters: scale not given: the % may be the effect or the level left
[29] = biological target: Mitogen-activated protein kinase kinase kinase 19 (Homo sapiens) (UniProt Q56UN5); assay: Inhibition of human YSK4 assessed as percent of control at 2000 nM by KINOMEscan assay relative to control; parameters: scale not given: the % may be the effect or the level left
Myc-CaP = assay: Antitumor activity against murine castration-resistant Myc-CaP cells xenografted in male FVB mouse assessed as suppression of tumor weight; assay type: functional
[30] = biological target: Cyclin-dependent kinase 8/19 (Homo sapiens, UniProt P49336+Q9BWU1); conditions: ST-2
Description: Inhibition of CDK8/CDK19 in ST2 cells by alkaline phosphatase activity assay

Structure (SMILES): CN(C)C(=O)c1ccc(N2CCCN(c3ccnc4sc(C(N)=O)c(N)c34)CC2)cc1
- Activity [1]: 100% and 82%
- Activity [2]: 100% and 93%
- Activity [3]: 99% and 100%
- Activity [4]: 100% and 81%
- Activity [5]: 85% and 91%
- Activity [6]: 57% and 77%
- Activity [7]: 92% and 100%
- Activity [8]: 91% and 100%
- Activity [9]: 93% and 94%
- Activity [10]: 95% and 100%
- Activity [11]: 100%
- Activity [12]: 92% and 98%
- Activity [13]: 91% and 95%
- Activity [14]: 100%
- Activity [15]: 89% and 100%
- Activity [16]: 96% and 100%
- Activity [17]: 74% and 71%
- Activity [18]: 90% and 86%
- Activity [19]: 100% and 76%
- Activity [20]: 92% and 100%
- Activity [21]: 100% and 93%
- Activity [22]: 96% and 100%
- Activity [23]: 94% and 82%
- Activity [24]: 96% and 91%
- Activity [25]: 88% and 92%
- Activity [26]: 94% and 95%
- Activity [27]: 87% and 93%
- Activity [28]: 100%
- Activity [29]: 74% and 53%
- Activity (Myc-CaP): Active
- EC200 [30]: 31.9 nM

Reference: ChEMBL document CHEMBL4804286, “3-amino-4-(4-(4 (dimethylcarbamoyl) phenyl)-1,4-diazepan-1-yl) thieno [2,3-b] pyridine-2-carboxamide for use in cancer therapy and formulations comprising the same” (2020)
